Patent US20090318379A1, “Statins for the Treatment of Viral Influenza Infections” (priority 2006, published 2009)
Read-outs that look alike come from different tables or passages of the source.

Columns and labels:
Influenza A H5N1 [1] = type: cell-based, Influenza A H5N1 (isolated in 1997 from human)
Influenza A H5N1 [2] = type: cell-based, Influenza A H5N1 (isolated in 1997 from human); remark: listed apart in the source
Influenza A H5N1 [3] = type: cell-based, Influenza A H5N1 (isolated in 1997 from human); remark: listed apart in the source
MDCK cells [4] = test system: MDCK cells
MDCK cells [5] = test system: MDCK cells; remark: listed apart in the source
MDCK cells [6] = test system: MDCK cells; remark: listed apart in the source

How did the No. of plaque (Influenza A H5N1 [1]) turn out when `NC(=O)c1ncn([C@@H]2O[C@H](CO)[C@@H](O)[C@H]2O)n1` [RIBAVIRIN, Ribavirin, reference compound] was run?
Its No. of plaque is 0.

What about the Number of plaques (Influenza A H5N1 [2]) of the same compound?
Its Number of plaques is 11000.

And the “No. of plaque 1st well” value (Influenza A H5N1 [3])?
The value was 134.

And the “No. of plaque 2nd well” value (Influenza A H5N1 [3])?
The value was 131.

What about the “No. of plaque 3rd well” value (Influenza A H5N1 [3]) of the same compound?
The value was 132.

What about the “Cytotoxicity in virus yield reduction assay” value (MDCK cells [4]) of the same compound?
Its value is “No”.

And the Cytotoxicity (MDCK cells [5])?
Its Cytotoxicity is “No”.

And the Cytotoxicity (MDCK cells [6])?
The Cytotoxicity was “No”.
